Data taken from patent US9061984B2 (University of Louisville Research Foundation, Inc., priority 2008, dated 2015).
Values after ≈ are worked out from the molar mass of the structure shown. Where two headings read alike, the source gives them in different places.

Columns and labels:
[1] = Cytotoxicity on VERO cells (MTT), anti-T. cruzi study; conditions: African green monkey, VERO cells
[2] = tested on: axenic amastigotes of L. amazonensis (strain MHOM/BR/76/LTB-012); experiment: microbe, parasite or virus in culture; conditions: Leishmania amazonensis
[3] = Toxicity to peritoneal macrophages (Trypan Blue count); format: cell-based, BALB/C mouse; conditions: BALB/C, mouse, Cytotoxicity Macrophages IC50
[4] = tested on: Trypanosoma cruzi (Tulahuen C4); experiment: In vitro anti-T. cruzi activity (β-galactosidase CPRG colorimetric assay in VERO monolayer); format: cell-based; conditions: for inhibition at 10 µg/mL / IC50: Trypanosoma cruzi, TULAHUEN, Vero; for inhibition at 10 µg/mL: 120 h, 10 μg/mL of each compound, 120 hours, read-out: T. cruzi Inhib. (%); for Selectivity Index Lab B: IC50, VERO/IC50, T. cruzi
M. tuberculosis H37Rv [5] = experiment: Conventional aerobic (MABA) culture assay, luminescence MIC; format: cell-based, Mycobacterium tuberculosis; conditions: for MIC: Mycobacterium tuberculosis, 168 h, aerobic, 7 days, H37Rv; for Selectivity Index H37Rv: VERO vs MABA MIC
VERO cells = experiment: Cell growth inhibition bioassay (sulforhodamine B); format: cell-based, African Green Monkey; conditions: Chlorocebus sabaeus, Vero; 48 h, SRB; read-out: GI50 in indicated cell line: VERO
Outline: (§1)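 Cells were exposed to compound alongside matched solvent controls, then stained with sulforhodamine B. Percent growth inhibition was calculated from dye absorbance against the control.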

M. tuberculosis MDR = experiment: Anti-tuberculosis bioassay (tetrazolium microplate MIC); format: cell-based; conditions: Mycobacterium tuberculosis, read-out: Mycobacterium MIC MDR
[6] = tested on: axenic amastigotes of L. amazonensis (strain MHOM/BR/76/LTB-012); conditions: Table 8b
M. tuberculosis H37Rv [7] = experiment: Anti-tuberculosis bioassay (tetrazolium microplate MIC); format: cell-based; conditions: Mycobacterium tuberculosis, read-out: Mycobacterium MIC H37Rv, Table 5
3T3 cells = experiment: Cell growth inhibition bioassay (sulforhodamine B); format: cell-based, mouse; conditions: Mus musculus, NIH3T3; 48 h, SRB; read-out: GI50 in indicated cell line: 3T3
Outline: as §1

MCF-7 cells = experiment: Cell growth inhibition bioassay (sulforhodamine B); format: cell-based, human; conditions: Homo sapiens, MCF7; 48 h, SRB; read-out: GI50 in indicated cell line: MCF-7
Outline: (§2)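 Human cancer cells (MCF-7 breast, DU145 and PC3 prostate, H460 large cell lung) were treated with compounds. Growth relative to solvent control was quantified by SRB protein stain.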

HT-29 cells = experiment: Cell growth inhibition bioassay (sulforhodamine B); format: cell-based, human; conditions: Homo sapiens, HT-29; 48 h, SRB; read-out: GI50 in indicated cell line: HT-29
Outline: as §1

H460 cells = experiment: Cell growth inhibition bioassay (sulforhodamine B); format: cell-based, human; conditions: Homo sapiens, NCI-H460; 48 h, SRB; read-out: GI50 in indicated cell line: H460
Outline: as §1

M-14 cells = experiment: Cell growth inhibition bioassay (sulforhodamine B); format: cell-based, human; conditions: Homo sapiens, M14; 48 h, SRB; read-out: GI50 in indicated cell line: M-14
Outline: as §1

K562 cells = experiment: Cell growth inhibition bioassay (sulforhodamine B); format: cell-based, human; conditions: Homo sapiens, K562; 48 h, SRB; read-out: GI50 in indicated cell line: K562
Outline: as §1

DU145 cells = experiment: Cell growth inhibition bioassay (sulforhodamine B); format: cell-based, human; conditions: Homo sapiens, DU-145; 48 h, SRB; read-out: GI50 in indicated cell line: DU145
Outline: as §2

[8] = Cytotoxicity VERO cell (Table 6); conditions: African green monkey, VERO cells
[9] = tested on: non-replicating persistence Mycobacterium tuberculosis (NRP-TB); experiment: Low oxygen recovery assay (LORA); format: cell-based; conditions: value in brackets; for MIC: Mycobacterium tuberculosis, anaerobic 10 days, 28 hour recovery; for Selectivity Index LORA: VERO vs LORA MIC
[10] = IC50 - VERO Cytotoxicity, Table 2
[11] = read-out: IC50 Cytotoxicity Against Amastigotes
[12] = Lab A, read-out: T. cruzi IC50 Lab A
[13] = Table 2, read-out: IC50 - T. cruzi
[14] = Lab B, read-out: T. cruzi IC50 Lab B

| Compound | IC50 ([2]; read-out: L. amazonensis IC50) | IC50 at 48 h [3] | IC50 [4, 12] | MIC (M. tuberculosis H37Rv [5]) | GI50 (VERO cells) | Selectivity Index [6] | GI50 (3T3 cells) | GI50 (MCF-7 cells) | GI50 (HT-29 cells) | GI50 (H460 cells) | GI50 (M-14 cells) | GI50 (K562 cells) | GI50 (DU145 cells) | IC50 ([1]; Cytotoxicity VERO Lab B, Lab B) | IC50 [8] | Selectivity Index Lab B ([4]; Lab B) | IC50 [4, 14] | Selectivity Index H37Rv (M. tuberculosis H37Rv [5]) | MIC [9] | Selectivity Index LORA [9] | other results |
| --- | --- | --- | --- | --- | --- | --- | --- | --- | --- | --- | --- | --- | --- | --- | --- | --- | --- | --- | --- | --- | --- |
| COc1cc(/C=N\Nc2ncnc3sc4c(c23)CCCC4)cc(OC)c1O [II-16] | 15.7 µM | 46.4 µM | 4.9 µg/mL (≈ 12.7 µM) | > 100 µg/mL | > 62.5 µg/mL | 3.0 | 10.5 µg/mL (≈ 27.3 µM) | > 62.5 µg/mL | > 62.5 µg/mL | > 62.5 µg/mL | > 62.5 µg/mL | > 62.5 µg/mL | 10.5 µg/mL (≈ 27.3 µM) | – | – | – | – | – | – | – | IC50 [1, 10]: 124 µg/mL (≈ 323 µM); IC50 [2, 11]: 21.9 µM; inhibition at 10 µg/mL [4]: 58.6%; IC50 [4, 13]: 8.74 µg/mL (≈ 22.7 µM); MIC (M. tuberculosis MDR): > 25 µg/mL; MIC (M. tuberculosis H37Rv [7]): > 25 µg/mL |
| C(=N/Nc1ncnc2sc3c(c12)CCCC3)/c1ccccc1 [II-01] | 13.5 µM | 8.7 µM | 1.9 µg/mL (≈ 6.16 µM) | 23.4 µg/mL (≈ 75.9 µM) | 5.3 µg/mL (≈ 17.2 µM) | 0.6 | 6.7 µg/mL (≈ 21.7 µM) | 3.5 µg/mL (≈ 11.3 µM) | 3.8 µg/mL (≈ 12.3 µM) | 5.6 µg/mL (≈ 18.2 µM) | 5.6 µg/mL (≈ 18.2 µM) | 4.1 µg/mL (≈ 13.3 µM) | 6.2 µg/mL (≈ 20.1 µM) | 8 µg/mL (≈ 25.9 µM) | 11.1 µg/mL (≈ 36 µM) | 1.8 | 4.4 µg/mL (≈ 14.3 µM) | 0.5 | – | – | IC50 [1, 10]: 29 µg/mL (≈ 94 µM); IC50 [2, 11]: 3.2 µM; inhibition at 10 µg/mL [4]: 80.1%; IC50 [4, 13]: 3.92 µg/mL (≈ 12.7 µM); MIC (M. tuberculosis MDR): 6.25 µg/mL (≈ 20.3 µM); MIC (M. tuberculosis H37Rv [7]): 6.25 µg/mL (≈ 20.3 µM) |
| C(=N/Nc1ncnc2sc3c(c12)CCCC3)/c1ccco1 [II-18] | 1.2 µM | 0.7 µM | 1.2 µg/mL (≈ 4.02 µM) | 11.9 µg/mL (≈ 39.9 µM) | 2.6 µg/mL (≈ 8.71 µM) | 0.6 | 2.3 µg/mL (≈ 7.71 µM) | 0.3 µg/mL (≈ 1.01 µM) | 2.5 µg/mL (≈ 8.38 µM) | 2.1 µg/mL (≈ 7.04 µM) | 3.3 µg/mL (≈ 11.1 µM) | 1.2 µg/mL (≈ 4.02 µM) | 4.7 µg/mL (≈ 15.8 µM) | 3 µg/mL (≈ 10.1 µM) | 12.3 µg/mL (≈ 41.2 µM) | 0.6 | 4.8 µg/mL (≈ 16.1 µM) | 1.0 | 2.9 µg/mL (≈ 9.72 µM) | 4.3 | – |
| FC(F)(F)c1ccc(/C=N\Nc2ncnc3sc4c(c23)CCCC4)cc1 [II-24] | 0.7 µM | 3.1 µM | – | 6.1 µg/mL (≈ 16.2 µM) | 5.4 µg/mL (≈ 14.3 µM) | 4.1 | 4 µg/mL (≈ 10.6 µM) | 2 µg/mL (≈ 5.31 µM) | 2.6 µg/mL (≈ 6.91 µM) | 5.8 µg/mL (≈ 15.4 µM) | 6.4 µg/mL (≈ 17 µM) | 2.5 µg/mL (≈ 6.64 µM) | 5.6 µg/mL (≈ 14.9 µM) | 3 µg/mL (≈ 7.97 µM) | 33.5 µg/mL (≈ 89 µM) | 0.8 | 4 µg/mL (≈ 10.6 µM) | 5.5 (5.5) | 6 µg/mL (≈ 15.9 µM) | 5.5 (5.5) | – |
| C/C(=N/Nc1ncnc2sc3c(c12)CCCC3)c1ccccc1 [II-47] | 9.2 µM | 51.3 µM | 1.3 µg/mL (≈ 4.03 µM) | 23.4 µg/mL (≈ 72.6 µM) | 9.3 µg/mL (≈ 28.8 µM) | 5.6 | 1.7 µg/mL (≈ 5.27 µM) | 5.3 µg/mL (≈ 16.4 µM) | 7.1 µg/mL (≈ 22 µM) | 5.1 µg/mL (≈ 15.8 µM) | 6.4 µg/mL (≈ 19.8 µM) | 3.5 µg/mL (≈ 10.9 µM) | 5.2 µg/mL (≈ 16.1 µM) | 4 µg/mL (≈ 12.4 µM) | 32.3 µg/mL (≈ 100 µM) | 0.9 | 4.4 µg/mL (≈ 13.6 µM) | 1.4 | 2.8 µg/mL (≈ 8.68 µM) | 11.5 | – |
